# Test results reported in the SangsterLogP compilation.
# Assay: not given
row,logP,Compound
1,4.44,CC1=CC2C(CC1)C2(C)C (configuration not stated)
2,3.84,CC(=O)C=CC1=C(C)CCCC1(C)C
3,3.22,CC1(C)[C@H]2CC=C(CO)[C@@H]1C2
4,3.16,CC1=C[C@H](O)[C@H]2C[C@@H]1C2(C)C
5,2.84,CC12CCC(CC1)C(C)(C)O2
6,4.24,CC1=CCC(=C(C)C)CC1
7,4.25,CC1=CC=C(C(C)C)CC1
8,3.45,C=CCc1ccc(OC)c(OC)c1
9,2.74,CC12CCC(CC1=O)C2(C)C (configuration not stated)
10,2.23,CC1=CC(=O)[C@H]2CC1C2(C)C
11,4,CC(=O)OC1C[C@H](C)CCC1C(C)C (some centres not stated)
12,2.42,CC1=CCC2[C@H](C1=O)C2(C)C (some centres not stated)
13,3.08,CC(C)=C1CC[C@@H](C)CC1=O
14,4.04,CC(=O)OC/C=C(\C)CCC=C(C)C
15,2.97,CC(C)C12CCC(C)(CC1)O2
16,3.49,Cc1ccc(C(C)C)cc1O
17,3.17,CC12CC[C@@H](C1)C(C)(C)C2=O (stereo in doubt)

row,logP,Compound
1,4.38,CC1=CCC2C(C1)C2(C)C (configuration not stated)
2,3.04,C/C=C/c1ccc(O)c(OC)c1
3,3.85,CC(=O)/C=C/[C@H]1C(C)=CCCC1(C)C
4,2.43,C=CC1(C)CCC(C(C)(C)O)O1 (configuration not stated)
5,3.21,C=C(C)[C@H]1CC[C@H](C)[C@@H](O)C1
6,2.05,CC1(C)C2CCC(CN)C1C2 (configuration not stated)
7,3.2,C=C(C)C1CCC2(C)OC2C1 (configuration not stated)
8,3.01,CC1(C)C2CCC1(C)C(O)C2 (configuration not stated)
9,3.17,C=C(C)[C@@H]1CC=C(CO)CC1
10,3.56,CC(C)=CCC/C(C)=C/CO
11,3.05,CC(C)[C@@H]1CC[C@@H](C)CC1=O
12,3.41,CC1(C)[C@H]2CC[C@@H](CO)[C@@H]1C2
13,2.98,CC1(C)[C@@H]2CC=C(C=O)[C@H]1C2
14,2.85,CC1=CC(=O)C(C(C)C)CC1 (configuration not stated)
15,3.83,CC(C)=CCC[C@@H](C)CC=O
16,3.93,C=CC(C)(CCC=C(C)C)OC(C)=O (configuration not stated)

row,Compound,logP
1,C=C(C)[C@@H]1CC=C(C=O)CC1,3.13

# Assay: method code SF-GLC, from DOI: 10.1016/s0021-9673(99)01009-2, PMID: 10669289
row,logP,Compound
1,1.11,CC1=CCC(C(C)(C)O)CC1O (configuration not stated)
2,3.96,CC(=O)OC(C)(C)C1C=CC(C)CC1 (configuration not stated)
3,4.44,CC1=CCC2C[C@H]1C2(C)C
4,2.85,C=C(C)C1CCC(C)C(=O)C1 (configuration not stated)
5,2.85,C=C(C)C1CC=C(C)C(O)C1 (configuration not stated)
6,3.28,CC1=CCC(C(C)(C)O)CC1 (configuration not stated)
7,2.71,C=C(C)[C@H]1CC=C(C)C(=O)C1
8,2.8,CC1=CCC(O)(C(C)C)CC1 (configuration not stated)
